The source of these data is patent US8394629B2, “Use of vinca alkaloids and salts thereof” (Keio University, priority 2003, dated 2013).

For assay [1], the system named is pancreatic acinar carcinoma AR42J-B13 cells. Nature of the assay: Morphological change and trypan blue exclusion test of AR42J-B13 cells. Type of assay: cell-based, rat. On the procedure:
(§1) DMEM was sterilized by filtration after its pH was adjusted to 7.4 in the presence of 20 mM HEPES-NaOH. AR42J-B13 cells (endowed by Dr. Itaru Kojima, Institute for Cellular and Molecular Regulation, Gunma University) a highly sensitive subclone of AR42J, were cultured at 37° C. in a 5% CO2 incubator with 20 ml of culture medium DMEM supplemented with 100 mg/l kanamycin, 0.6 g/l glutamine, 100 unit/ml penicillin G, 5 mM NaHCO3, and 10% FBS. To prevent transformation due to a high density of the cells and to retain differentiation ability of the cells, the cells were transferred every 2 to 3 days to maintain 2.5% to 5% of confluency. The cell transfer was performed as follows: After the medium was removed, the cells were washed twice in PBS^− (Ca^2+, Mg^2+-free PBS; 8 g/l, NaCl, 0.2 g/l KCl, 0.916 g/Na2HPO4, 0.2 g/l KH2PO4). Subsequently, the cells were detached using 2 ml of trypsin-EDTA solution, and then trypsin was inactivated by addition of 8 ml of the medium. […]
Cells that had been prepared at a density of 4×10^5 cells/ml were plated at 500 μl per well on 24-well plates, followed by incubation at 37° C. in a 5% CO2 incubator. […] Further, the photograph was enlarged 2.5 times and a morphological change was defined as having occurred when the full length of a cell in the diameter became 1.5 times; thus, the rates of morphological changes were determined.

Assay [2] has the same test system. Put plainly: Insulin immunofluorescence of AR42J-B13 cells. Type of assay: cell-based, rat. Conditions: after 72 hours; conophylline 0.1 μg/ml, HGF 100 pM, activin A 2 nM. On the procedure:
as §1, with “medium. Subsequently, the cell were sedimented by centrifugation at 1000 rpm for 5 min, trypsin was removed, 10 ml of fresh medium was added, and transferred to be 2.5% to 5% of confluency. Cells were cryopreserved under the condition of 7.5% dimethyl sulfoxide (DMSO).” for “medium.”

The test system is the same in assay [3]. Nature of the assay: ELISA quantification of insulin secretion of differentiated AR42J-B13 cells. The class given is cell-based, rat. Conditions: secretion below the detection level.
The subject of assay [4] is streptozotocin-administered rats. Put plainly: Blood glucose levels of streptozotocin-administered rats. The class given is in vivo, Wistar rats. Conditions: 5 μg/g BW subcutaneously for seven consecutive days from day 1 after streptozotocin; versus control; P<0.05 / P<0.01; FIG. 4. Here is the method: Ten 1-day old Wistar rats (purchased from Japan SLC, Shizuoka, Japan) were intraperitoneally injected with streptozotocin (purchased from Wako Pure Chemical Industries, Ltd., dissolved in […] citrate buffer (pH 4.5)) at 85 μg/g BW per rat. Streptozotocin decreases insulin production by destroying pancreatic β cells, thereby inducing diabetes. The day of streptozotocin injection was defined as day 0, Starting from the next day (day 1), five rats were injected subcutaneously with a solution (ethanol) of conophylline at 5 μg/g BW for seven consecutive days and their random blood glucose levels were measured daily. Five rats in the control group received the same volume of solvent (Control).

Assay [5] has as its system pancreatic acinar carcinoma AR42 J-B13 cells. Conditions: known from prior report; cited from earlier work.
The test system of assay [6] is neonatal porcine pancreatic cells. Put plainly: Immunostaining of insulin-producing cells in cultured neonatal porcine pancreatic cells (Experiment example I). Type of assay: cell-based, pig. Conditions: three weeks culture; nicotinamide 10 mM, HGF 10 ng/ml, conophylline 0.1 μg/ml; FIG. 2. Here is the method: Neonatal pigs within 72 hours of birth were obtained from the (Takayama) pig farm. The whole pancreas (ventral and dorsal pancreas) was removed under general anesthesia immediately after animals were brought to the operating room. After elimination of connective tissue covering the removed pancreas and blood adhering to it, the pancreas was transferred to a 10 ml beaker and dissected into small pieces with ophthalmic scissors. The dissected pieces were transferred to a 100 ml conical flask, to which 50 to 60 ml of phosphate buffered saline (PBS) was added. After a 3 min rotation at 110 rpm on a low speed stirrer, the mixture was allowed to stand still and the supernatant was discarded. Then, 40 mL of phosphate buffered saline containing Liberase PI (Roche) at a concentration of 2.5 mg/ml was added. After an 8 min rotation at 110 rpm on a low speed stirrer, the mixture was allowed to stand still and the supernatant containing the cells was collected. The operation was repeated 5 times. The supernatant collected was centrifuged at 1200 rpm for 5 min. to collect cells. The cells collected in the centrifugal sedimentum was suspended in 25 to 50 ml of PBS, 25 ml of cell suspension was overlaid gently on 10 ml of Histopaque 1077 (Sigma), followed by centrifugation at 1800 rpm for 10 min. […]

A further assay has as its system porcine pancreatic cells. Put plainly: Induction of insulin production in porcine pancreatic cells (statement in the description). Type of assay: cell-based, pig. Conditions: no conditions given.

As for `CC[C@@]12C=CCN3CC[C@]4(C(=C(C(=O)OC)C1)Nc1cc5c(cc14)[C@H]1[C@@H](O5)[C@H](O)[C@]4(CC)CC(C(=O)OC)=C5Nc6c(cc(O)c(OC)c6OC)[C@@]56CCN1[C@H]46)[C@H]32` (stereo in doubt) [conophyllidine], the “morphological changes involved in insulin production” value in assay [1] (AR42J cells, no concentration given) is recorded as “confirmed to induce morphological changes”.
On to “HGF: Hepatocyte growth factor (HGF), Sigma”, for which, in assay [2], the “red coloration of insulin in cells (immunofluorescence)” value is “no red coloration indicating insulin was observed”.
In the case of `CC[C@@]12CC(C(=O)OC)=C3Nc4cc5c(cc4[C@@]34CCN(C[C@H]3O[C@H]31)[C@@H]24)[C@@H]1[C@H](O5)[C@@H](O)[C@@]2(CC)CC(C(=O)OC)=C3Nc4c(cc(O)c(OC)c4OC)[C@@]34CCN1[C@@H]24` [conophylline], in assay [3], the “insulin secretion out of cells” value is recorded as “incapable of inducing insulin secretion out of cells”. In addition, the blood glucose levels result in assay [4] is “apparent decrease in blood glucose levels”. In assay [5], the “insulin production of AR42J cells” value is reported as “induces insulin production” and the “insulin release into culture medium” value is on record as “did not release insulin into culture medium”. Also, in assay [6], the “insulin-producing cells colored in red (immunostaining)” value was “only a few insulin-producing cells”. For the same molecule, the “process outgrowth (morphological change)” value in assay [1] (conophylline 0.1 to 0.3 μg/ml, alone or with HGF) is recorded as “concentration-dependently induced”.
As for `NC(=O)c1cccnc1` [nicotinamide, reference compound], the “insulin-producing cells colored in red (immunostaining)” value in assay [6] was “only a few insulin-producing cells”.

B1: Activin: activin A, which belongs to the TGF-β superfamily (protein, UniProt P08476 311-426, looked up)
Inhibin beta A chain: GLECDGKVNICCKKQFFVSFKDIGWNDWIIAPSGYHANYCEGECPSHIAGTSGSSLSFHSTVINHYRMRGHSPFANLKSCCVPTKLRPMSMLYYDDGQNIIKKDIQNMIVEECGCS
With B1, in assay [5], the “insulin production of AR42J cells” value is listed as “capable of inducing AR42J cells to produce insulin”. In addition, the “inducing insulin production of porcine pancreatic cells” value with porcine pancreatic cells is “does not exhibit the effect”.
